Laboratory results: ChEMBL document CHEMBL1933065, “Synthesis and antifungal evaluation of pyrido[1,2-a]indole-1,4-diones and benzo[f]pyrido[1,2-a]indole-6,11-diones” (2012)
Values after ≈ are worked out from the molar mass of the structure shown.

Key:
Assay type in all cases: functional
Aspergillus niger = experiment: Antifungal activity against Aspergillus niger KCTC 1231 after 2 days by two fold broth dilution method; conditions: KCTC 1231, 48 h
Pichia kudriavzevii = experiment: Antifungal activity against Candida krusei Berkout KCCM 11655 after 1 day by two fold broth dilution method; conditions: Berkout KCCM 11655, 24 h
Aspergillus flavus = experiment: Antifungal activity against Aspergillus flavus KCCM 11899 after 2 days by two fold broth dilution method; conditions: KCCM 11899, 48 h
Candida tropicalis = experiment: Antifungal activity against Candida tropicalis Berkout KCCM 50662 after 1 day by two fold broth dilution method; conditions: Berkout KCCM 50662, 24 h
Candida albicans = experiment: Antifungal activity against Candida albicans Berkout KCCM 50235 after 1 day by standard two fold broth dilution method; conditions: Berkout KCCM 50235, 24 h
Cryptococcus neoformans = experiment: Antifungal activity against Cryptococcus neoformans Berkout KCCM 50564 after 1 day by two fold broth dilution method; conditions: Berkout KCCM 50564, 24 h

SMILES | MIC (Aspergillus niger) [µg/mL] | MIC (Pichia kudriavzevii) [µg/mL] | MIC (Aspergillus flavus) [µg/mL] | MIC (Candida tropicalis) [µg/mL] | MIC (Candida albicans) [µg/mL] | MIC (Cryptococcus neoformans) [µg/mL]
CC(=O)c1c2c(n3ccc(C)cc13)C(=O)C(C)=C(C)C2=O | 3.2 (≈ 11.4 µM) | 12.5 (≈ 44.4 µM) | 3.2 (≈ 11.4 µM) | 6.3 (≈ 22.4 µM) | 1.6 (≈ 5.69 µM) | 1.6 (≈ 5.69 µM)
COc1ccn2c3c(c(C(C)=O)c2c1)C(=O)C(C)=C(C)C3=O | 3.2 (≈ 10.8 µM) | 3.2 (≈ 10.8 µM) | 25 (≈ 84.1 µM) | 25 (≈ 84.1 µM) | 25 (≈ 84.1 µM) | 6.3 (≈ 21.2 µM)
CC(=O)c1c2c(n3cc(Cl)ccc13)C(=O)C(C)=C(C)C2=O | 1.6 (≈ 5.3 µM) | 3.2 (≈ 10.6 µM) | 3.2 (≈ 10.6 µM) | 12.5 (≈ 41.4 µM) | 6.3 (≈ 20.9 µM) | 6.3 (≈ 20.9 µM)
COC(=O)c1c2c(n3ccc(OC)cc13)C(=O)C(C)=C(C)C2=O | 25 (≈ 79.8 µM) | 12.5 (≈ 39.9 µM) | 25 (≈ 79.8 µM) | 25 (≈ 79.8 µM) | 6.3 (≈ 20.1 µM) | 1.6 (≈ 5.11 µM)
CC1=C(C)C(=O)c2c(cc3cc(C)ccn23)C1=O | 12.5 (≈ 52.2 µM) | 12.5 (≈ 52.2 µM) | 1.6 (≈ 6.69 µM) | 6.3 (≈ 26.3 µM) | 12.5 (≈ 52.2 µM) | 6.3 (≈ 26.3 µM)
COc1ccn2c3c(cc2c1)C(=O)C(C)=C(C)C3=O | 12.5 (≈ 49 µM) | 12.5 (≈ 49 µM) | 6.3 (≈ 24.7 µM) | 6.3 (≈ 24.7 µM) | 6.3 (≈ 24.7 µM) | 1.6 (≈ 6.27 µM)
CCc1ccn2c3c(c(C(C)=O)c2c1)C(=O)c1ccccc1C3=O | 25 (≈ 78.8 µM) | 50 (≈ 158 µM) | 12.5 (≈ 39.4 µM) | > 100 | 50 (≈ 158 µM) | 25 (≈ 78.8 µM)
COc1ccc2c(C(C)=O)c3c(n2c1)C(=O)c1ccccc1C3=O | 6.3 (≈ 19.7 µM) | 6.3 (≈ 19.7 µM) | 12.5 (≈ 39.1 µM) | 3.2 (≈ 10 µM) | 3.2 (≈ 10 µM) | 12.5 (≈ 39.1 µM)
CCOC(=O)c1c2c(n3ccc(C)cc13)C(=O)c1ccccc1C2=O | 12.5 (≈ 37.5 µM) | 12.5 (≈ 37.5 µM) | 25 (≈ 75 µM) | 3.2 (≈ 9.6 µM) | 6.3 (≈ 18.9 µM) | 6.3 (≈ 18.9 µM)

Other lines, results leading:

MIC (Aspergillus niger) [µg/mL] | MIC (Pichia kudriavzevii) [µg/mL] | MIC (Aspergillus flavus) [µg/mL] | MIC (Candida tropicalis) [µg/mL] | MIC (Candida albicans) [µg/mL] | MIC (Cryptococcus neoformans) [µg/mL] | SMILES
1.6 (≈ 5.42 µM) | 3.2 (≈ 10.8 µM) | 3.2 (≈ 10.8 µM) | 12.5 (≈ 42.3 µM) | 6.3 (≈ 21.3 µM) | 6.3 (≈ 21.3 µM) | CCc1ccn2c3c(c(C(C)=O)c2c1)C(=O)C(C)=C(C)C3=O
3.2 (≈ 10.3 µM) | 6.3 (≈ 20.2 µM) | 6.3 (≈ 20.2 µM) | 50 (≈ 161 µM) | 6.3 (≈ 20.2 µM) | 12.5 (≈ 40.1 µM) | CCOC(=O)c1c2c(n3ccc(C)cc13)C(=O)C(C)=C(C)C2=O
3.2 (≈ 9.78 µM) | 6.3 (≈ 19.2 µM) | 3.2 (≈ 9.78 µM) | 6.3 (≈ 19.2 µM) | 12.5 (≈ 38.2 µM) | 50 (≈ 153 µM) | CCOC(=O)c1c2c(n3ccc(OC)cc13)C(=O)C(C)=C(C)C2=O
25 (≈ 80.3 µM) | 12.5 (≈ 40.1 µM) | 12.5 (≈ 40.1 µM) | 12.5 (≈ 40.1 µM) | 12.5 (≈ 40.1 µM) | 3.2 (≈ 10.3 µM) | CCOC(=O)c1c2c(n3cc(C)ccc13)C(=O)C(C)=C(C)C2=O
1.6 (≈ 5.14 µM) | 25 (≈ 80.3 µM) | 6.3 (≈ 20.2 µM) | 12.5 (≈ 40.1 µM) | 3.2 (≈ 10.3 µM) | 0.8 (≈ 2.57 µM) | CCc1ccn2c3c(c(C(=O)OC)c2c1)C(=O)C(C)=C(C)C3=O
6.3 (≈ 21.2 µM) | 6.3 (≈ 21.2 µM) | 3.2 (≈ 10.8 µM) | 6.3 (≈ 21.2 µM) | 6.3 (≈ 21.2 µM) | 25 (≈ 84.1 µM) | COC(=O)c1c2c(n3ccc(C)cc13)C(=O)C(C)=C(C)C2=O
6.3 (≈ 21.2 µM) | 3.2 (≈ 10.8 µM) | 3.2 (≈ 10.8 µM) | 6.3 (≈ 21.2 µM) | 12.5 (≈ 42 µM) | 6.3 (≈ 21.2 µM) | CCOC(=O)c1c2c(n3ccccc13)C(=O)C(C)=C(C)C2=O
6.3 (≈ 19.5 µM) | 6.3 (≈ 19.5 µM) | 3.2 (≈ 9.93 µM) | 3.2 (≈ 9.93 µM) | 3.2 (≈ 9.93 µM) | 6.3 (≈ 19.5 µM) | CCOC(=O)c1c2c(n3ccc(C#N)cc13)C(=O)C(C)=C(C)C2=O
12.5 (≈ 38.4 µM) | 6.3 (≈ 19.4 µM) | 6.3 (≈ 19.4 µM) | 12.5 (≈ 38.4 µM) | 6.3 (≈ 19.4 µM) | 6.3 (≈ 19.4 µM) | CCOC(=O)c1c2c(n3ccc(CC)cc13)C(=O)C(C)=C(C)C2=O
